Measured values from ChEMBL document CHEMBL1201862, “PubChem BioAssay data set” (2004).
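Briefly, cells in 96-well plates were exposed to five compound concentrations for 48 h, and endpoints were estimated by linear interpolation. Here, GI50 denotes the concentration required for 50% inhibition of growth.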 Active and inactive are the calls of the source. Cut-off read from the data, not from the text of the source: active = GI50 up to about 1.1 µM and inactive = higher.

Key:
Experiment in all cases: NCI anticancer screen, dose series, 48 h
A498 = system: A498
CAKI-1 = system: CAKI-1
COLO 205 = system: COLO 205
EKVX = system: EKVX
HCC 2998 = system: HCC 2998
HL-60 = system: HL-60
LOX IMVI = system: LOX IMVI
MOLT-4 = system: MOLT-4
Malme-3M = system: Malme-3M
RPMI-8226 = system: RPMI-8226
RXF 393 = system: RXF 393
SF-268 = system: SF-268
SF-295 = system: SF-295
SK-MEL-2 = system: SK-MEL-2
SN12C = system: SN12C
SNB-19 = system: SNB-19
TK-10 = system: TK-10
HOP-92 = system: HOP-92
NCI/ADR-RES = system: NCI/ADR-RES
MDA-MB-231 = system: MDA-MB-231

| Structure (SMILES) | GI50 (A498) | GI50 (CAKI-1) | GI50 (COLO 205) | GI50 (EKVX) | GI50 (HCC 2998) | GI50 (HL-60) | GI50 (LOX IMVI) | GI50 (MOLT-4) | GI50 (Malme-3M) | GI50 (RPMI-8226) | GI50 (RXF 393) | GI50 (SF-268) | GI50 (SF-295) | GI50 (SK-MEL-2) | GI50 (SN12C) | GI50 (SNB-19) | GI50 (TK-10) | GI50 (HOP-92) | GI50 (NCI/ADR-RES) | GI50 (MDA-MB-231) |
| --- | --- | --- | --- | --- | --- | --- | --- | --- | --- | --- | --- | --- | --- | --- | --- | --- | --- | --- | --- | --- |
| CC1=C(C(=O)Nc2ccccc2)C(c2ccc3c(c2)OCO3)C(C(=O)Nc2ccccc2)=C(C)N1 | 19.5 µM (inactive) | 31.3 µM (inactive) | 42.7 µM (inactive) | 53.3 µM (inactive) | 44.6 µM (inactive) | 18.1 µM (inactive) | 24.4 µM (inactive) | 19 µM (inactive) | 62.1 µM (inactive) | 23.1 µM (inactive) | 11.1 µM (inactive) | 25.3 µM (inactive) | 35.3 µM (inactive) | 28.8 µM (inactive) | 34.2 µM (inactive) | 25.7 µM (inactive) | 59.7 µM (inactive) |  |  |  |
| CC1=C2[C@@H](c3ccccc3)C3C=CC2(C=C3C(F)(F)F)N(C(=O)NC2CCCCC2)C1=O (some centres undefined) | > 100 µM (inactive) | 51.8 µM (inactive) | > 100 µM (inactive) | 69 µM (inactive) | 38.9 µM (inactive) | 14.8 µM (inactive) | 44 µM (inactive) | 16.2 µM (inactive) | > 100 µM (inactive) |  | > 100 µM (inactive) | 91 µM (inactive) | > 100 µM (inactive) |  | > 100 µM (inactive) | > 100 µM (inactive) | > 100 µM (inactive) | > 100 µM (inactive) |  |  |
| Nc1c(/N=N/c2ccc(-c3ccc(/N=N/c4c(O)ccc5cc(S(=O)(=O)O)cc(S(=O)(=O)O)c45)cc3)cc2)c(S(=O)(=O)O)cc2cc(S(=O)(=O)O)c(/N=N/c3ccccc3)c(O)c12 | > 100 µM (inactive) |  | > 100 µM (inactive) | > 100 µM (inactive) | > 100 µM (inactive) | 85.1 µM (inactive) | > 69 µM (inactive) | > 100 µM (inactive) | > 100 µM (inactive) | > 100 µM (inactive) | > 100 µM (inactive) | > 100 µM (inactive) | > 77.1 µM (inactive) | > 100 µM (inactive) | > 100 µM (inactive) | > 100 µM (inactive) |  | > 69.7 µM (inactive) | > 100 µM (inactive) |  |
| COc1cccc(C2SC(=N)Nc3c2c(C)nn3C(=O)Cc2ccccc2)c1 (centres undefined) | > 100 µM (inactive) | > 100 µM (inactive) | > 100 µM (inactive) | > 100 µM (inactive) | > 100 µM (inactive) | > 100 µM (inactive) | > 100 µM (inactive) | > 100 µM (inactive) | > 100 µM (inactive) | > 100 µM (inactive) |  | > 100 µM (inactive) | > 100 µM (inactive) |  | > 100 µM (inactive) | > 100 µM (inactive) | > 100 µM (inactive) |  |  | > 100 µM (inactive) |
| CC(=O)N1OC(C)CC1Nc1ccc(Br)cc1 (centres undefined) | > 100 µM (inactive) |  |  | > 100 µM (inactive) | 3.05 µM (inactive) | 1.95 µM (inactive) |  | 0.971 µM (active) | > 100 µM (inactive) |  | > 100 µM (inactive) | > 100 µM (inactive) | > 100 µM (inactive) | 2.62 µM (inactive) | 20.8 µM (inactive) | > 100 µM (inactive) | 14.7 µM (inactive) | > 100 µM (inactive) | > 100 µM (inactive) |  |
| CCCCCCCCCC/C=C/C=O | > 100 µM (inactive) |  | > 100 µM (inactive) | > 100 µM (inactive) | > 100 µM (inactive) | 56.1 µM (inactive) | > 100 µM (inactive) | 70.3 µM (inactive) | > 100 µM (inactive) |  | > 100 µM (inactive) | > 100 µM (inactive) | > 100 µM (inactive) | > 100 µM (inactive) | > 100 µM (inactive) | > 100 µM (inactive) | > 100 µM (inactive) | > 100 µM (inactive) |  |  |
| OCc1ccccc1C1CSCSC1 |  |  |  |  |  | > 100 µM (inactive) | > 100 µM (inactive) | > 100 µM (inactive) | > 100 µM (inactive) |  | > 100 µM (inactive) | > 100 µM (inactive) | > 100 µM (inactive) | > 100 µM (inactive) | > 100 µM (inactive) |  | > 100 µM (inactive) |  |  |  |
| COc1ccc(Nc2nc3ccccc3nc2-c2cccs2)cc1 | 42.6 µM (inactive) | > 100 µM (inactive) | > 100 µM (inactive) | > 100 µM (inactive) | 75 µM (inactive) | 17.5 µM (inactive) | > 100 µM (inactive) | > 100 µM (inactive) | > 100 µM (inactive) |  | > 100 µM (inactive) | > 100 µM (inactive) | 70.6 µM (inactive) | > 100 µM (inactive) | > 100 µM (inactive) | > 100 µM (inactive) | > 100 µM (inactive) | 51.5 µM (inactive) |  |  |
| COc1cc2oc(-c3ccc(O)cc3)cc(=O)c2c(O)c1C1OC(CO)C(O)C(O)C1O (centres undefined) | > 100 µM (inactive) | > 100 µM (inactive) | > 100 µM (inactive) | > 100 µM (inactive) | > 100 µM (inactive) | > 100 µM (inactive) | > 100 µM (inactive) | > 100 µM (inactive) | > 100 µM (inactive) | > 100 µM (inactive) |  | > 100 µM (inactive) | > 100 µM (inactive) | > 100 µM (inactive) | > 100 µM (inactive) | > 100 µM (inactive) | > 100 µM (inactive) |  |  |  |
| CC1=C(C(=O)Nc2cccc(Cl)c2)C(c2ccc([N+](=O)[O-])cc2)C(C(=O)Nc2cccc(Cl)c2)=C(C)N1 | 33.1 µM (inactive) |  | 34.5 µM (inactive) | 33.3 µM (inactive) | 17.9 µM (inactive) | 17.9 µM (inactive) | 14.9 µM (inactive) | 10.3 µM (inactive) | 21 µM (inactive) | 15.5 µM (inactive) | 19.5 µM (inactive) | 27 µM (inactive) | 23.6 µM (inactive) | 18.3 µM (inactive) | 22.3 µM (inactive) | 37.2 µM (inactive) | 67.3 µM (inactive) | 11.5 µM (inactive) |  |  |
| C1CCC(OCc2nnn3c2CCC3)OC1 (centres undefined) |  |  |  | > 100 µM (inactive) | > 100 µM (inactive) | > 100 µM (inactive) | > 100 µM (inactive) | > 100 µM (inactive) | > 100 µM (inactive) |  | > 100 µM (inactive) |  | > 100 µM (inactive) | > 100 µM (inactive) | > 100 µM (inactive) |  | > 100 µM (inactive) | > 100 µM (inactive) |  |  |
| C=CC[N+](CCO)(CCO)CCCCCCCCCCCCCCCCCC | 15.6 µM (inactive) | 4.46 µM (inactive) | 3.36 µM (inactive) | 17 µM (inactive) | 3.23 µM (inactive) | 0.714 µM (active) | 2.75 µM (inactive) | 1.61 µM (inactive) | 14.8 µM (inactive) | 2.25 µM (inactive) | 2.19 µM (inactive) | 3.33 µM (inactive) | 4.41 µM (inactive) | 14.5 µM (inactive) | 6.78 µM (inactive) | 8.91 µM (inactive) |  | 1.5 µM (inactive) | 23.5 µM (inactive) |  |
| CCCCOC(=O)NC(Nc1ccc(S(N)(=O)=O)cc1)(C(F)(F)F)C(F)(F)F | > 100 µM (inactive) |  |  | > 100 µM (inactive) | > 100 µM (inactive) | > 100 µM (inactive) | > 100 µM (inactive) | > 100 µM (inactive) | > 100 µM (inactive) | > 100 µM (inactive) | > 100 µM (inactive) | > 100 µM (inactive) |  | > 100 µM (inactive) | > 100 µM (inactive) | > 100 µM (inactive) | > 100 µM (inactive) |  |  | > 100 µM (inactive) |
| CCOC(=O)C1(Cc2ccc3ccccc3c2)CCCCC(=O)N1 (centres undefined) |  | 43.1 µM (inactive) | 39.1 µM (inactive) | 54.8 µM (inactive) | 8.67 µM (inactive) | 12.1 µM (inactive) | 24.1 µM (inactive) | 7.35 µM (inactive) | 11.9 µM (inactive) | 3.78 µM (inactive) | > 100 µM (inactive) | 49.8 µM (inactive) | 8.89 µM (inactive) |  | 44.5 µM (inactive) | 36.5 µM (inactive) | 56.1 µM (inactive) | 13.1 µM (inactive) |  |  |
| Cn1cc(C(=O)c2ccccc2)ccc1=O |  | > 100 µM (inactive) | > 100 µM (inactive) | > 100 µM (inactive) | > 100 µM (inactive) | > 100 µM (inactive) | > 100 µM (inactive) | > 100 µM (inactive) | > 100 µM (inactive) | > 100 µM (inactive) | > 100 µM (inactive) | > 100 µM (inactive) | > 100 µM (inactive) | > 100 µM (inactive) | > 100 µM (inactive) | > 100 µM (inactive) | > 100 µM (inactive) | > 100 µM (inactive) |  |  |
| O=C(/C(=C/c1ccc(O)cc1)c1ccccc1)c1ccccc1 | 17.9 µM (inactive) | 19.1 µM (inactive) | 17.5 µM (inactive) | 20 µM (inactive) | 17.4 µM (inactive) | 13.6 µM (inactive) | 13.2 µM (inactive) | 15.4 µM (inactive) | 19 µM (inactive) | 17.3 µM (inactive) |  | 17.3 µM (inactive) | 16.1 µM (inactive) | 11.6 µM (inactive) | 18.4 µM (inactive) |  | 16.2 µM (inactive) | 5.65 µM (inactive) |  |  |
| C/C=C/c1cc2c(c(=O)o1)C(=O)[C@@H](O)[C@H](C)O2 | 12 µM (inactive) | 17.3 µM (inactive) | 11.4 µM (inactive) | 17.2 µM (inactive) | 10.3 µM (inactive) | 4.32 µM (inactive) | 12.6 µM (inactive) | 9.71 µM (inactive) | 17.3 µM (inactive) | 4.09 µM (inactive) | 12.3 µM (inactive) | 13 µM (inactive) | 21 µM (inactive) | 18.8 µM (inactive) | 15.4 µM (inactive) | 19.5 µM (inactive) |  | 16.9 µM (inactive) | 15.9 µM (inactive) |  |
